This is an account of results in publication PMC4560423, “Identification and Characterization of a Novel Galactofuranose-Specific β-D-Galactofuranosidase from Streptomyces Species” (PLoS ONE, 2015).

Data set [1] deals with T1, ORF1110 Galf-ase (ORF1110 protein) (Streptomyces sp. JHA19, UniProt A0A0K2SRV3).
T1 construct: recombinant from E. coli BL21(DE3)CodonPlus, pET50b, N-terminal 2xHis6 and Nus tags (cut by HRV3C for TLC only); ORF 786 aa; GH2 with C-terminal AbfB domain
T1 sequence (A0A0K2SRV3 46-786): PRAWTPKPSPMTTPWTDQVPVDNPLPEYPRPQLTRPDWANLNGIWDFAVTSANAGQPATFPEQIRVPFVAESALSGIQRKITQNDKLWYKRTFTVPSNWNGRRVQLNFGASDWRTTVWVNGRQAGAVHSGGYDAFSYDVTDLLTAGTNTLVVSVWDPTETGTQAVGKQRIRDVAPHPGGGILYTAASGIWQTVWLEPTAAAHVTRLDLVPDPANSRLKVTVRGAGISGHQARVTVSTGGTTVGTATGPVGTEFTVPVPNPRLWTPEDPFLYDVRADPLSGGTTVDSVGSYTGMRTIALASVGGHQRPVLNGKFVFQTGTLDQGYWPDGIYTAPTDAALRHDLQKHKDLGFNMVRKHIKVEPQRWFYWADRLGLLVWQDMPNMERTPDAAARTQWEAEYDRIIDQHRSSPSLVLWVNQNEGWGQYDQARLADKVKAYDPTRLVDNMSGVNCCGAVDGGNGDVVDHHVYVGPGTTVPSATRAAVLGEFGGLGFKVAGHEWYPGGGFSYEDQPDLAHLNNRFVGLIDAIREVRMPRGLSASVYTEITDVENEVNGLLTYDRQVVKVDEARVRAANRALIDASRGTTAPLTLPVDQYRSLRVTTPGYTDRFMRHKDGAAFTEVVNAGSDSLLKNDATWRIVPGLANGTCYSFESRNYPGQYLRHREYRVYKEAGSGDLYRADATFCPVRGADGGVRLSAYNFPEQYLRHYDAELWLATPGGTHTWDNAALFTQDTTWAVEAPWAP
Nature of the data set: inhibition of pNP-β-D-Galf hydrolysis, pNP absorbance at […] nm. The class given is biochemical.

The test system of data set [2] is O=[N+]([O-])c1ccc(O[C@@H]2O[C@@H]([C@H](O)CO)[C@H](O)[C@H]2O)cc1. Nature of the data set: purified protein. The conditions noted are these: 37 °C, acetate buffer pH 4.5 (general assay; pH of the kinetics not stated).

Consider `O=C1O[C@@H](CO)[C@H](O)[C@H]1O` [L-arabino-1,4-lactone], for which, in data set [1], the affinity, expressed as Ki, was 51 mM.
Consider “ORF1110 Galf-ase (ORF1110 protein) (Streptomyces sp. JHA19)”, for which, in data set [2], the Km was 4.4 mM.
